Test results taken from patent US20100249413A1, “STABILIZED PHARMACEUTICAL COMPOSITION” (priority 2006, published 2010).

Key:
[1] = system: cancer proliferation; details: reported in Patent Document 1; cited from earlier work
[2] = reported in Patent Document 1; cited from earlier work
[3] = bulk material, reported in Patent Document 2; cited from earlier work
[4] = bulk material, reported in Patent Document 2; cited from earlier work; remark: listed apart in the source
[5] = Light stability of compound A solution with various stabilizers: photolyzed substances by HPLC (Experimental Example 1); format: physicochemical; details: compound A drug solution 5 mg/mL, D65 lamp/1000 lux, 24 hours, room temperature
Procedure: Each sample was stored upside-down under a condition of D65 lamp/1000 lux in a constantly changing room temperature for 24 hours to evaluate the stability by measuring the increased amounts of photolyzed substances. The measurement of photolyzed substances was carried out using HPLC.
Mobile phase (liquid A): 0.1% trifluoroacetic acid aqueous solution/acetonitrile=9:2, (liquid B) acetonitirle, gradient % (capacity) B: 0% (0 to 60 min)/linear 75% (60 to 80 min)/linear 0% (80 to 100 min), column:TSK-gel ODS-80TsQA, 4.6×150 mm, particle diameter 5 μm (produced by Tosoh Corp.), flow rate: 1 mL/min, column temperature: 40° C., detection: UV 270 nm.

Photolyzed Substance Amount (%) [5] [%] | SMILES | cancer proliferation-inhibitory activity in vivo [1] | toxicity [2] | hygroscopicity [3] | storage stability (humidity, long-term storage) [4]
 | COCCn1c2c([n+](Cc3cnccn3)c1C)C(=O)c1ccccc1C2=O.[Cl-] [chloride of compound A, 1-(2-methoxyethyl)-2-methyl-4,9-dioxo-3-(pyrazin-2-ylmethyl)-4,9-dihydro-1H-naphtho[2,3-d]imidazol-3-ium chloride] | excellent cancer proliferation-inhibitory activity in vivo | low in toxicity | has hygroscopicity | unstable to humidity
3.4 | COCCn1c2c([n+](Cc3cnccn3)c1C)C(=O)c1ccccc1C2=O [compound A, 1-(2-methoxyethyl)-2-methyl-4,9-dioxo-3-(pyrazin-2-ylmethyl)-4,9-dihydro-1H-naphtho[2,3-d]imidazol-3-ium] |  |  |  | 
